In US9125898B2, “Acetam derivatives for pain relief” (NEUROTUNE AG, priority 2008, dated 2015):

What was measured:
[1] = test system: ddC induced mechanical allodynia in rats; assay: ddC induced mechanical allodynia in rats, von Frey test; format: in vivo, rat; settings: FIG. 4; 15 min after drug administration
Protocol: Painful peripheral NP may be induced in rats by i.v. administration of 2′,3′-dideoxycytidine (ddC) mimicking what is seen in AIDS patients undergoing antiviral therapy. The ddC test represents a useful and predictive model to study molecules with analgesic potential in human neuropathic states.
Adult male SD rats (Harlan, Italy, 150-200 g weight) were used. Animals were treated with 25 mg/kg i.v. bolus of 2′,3′-dideoxycytidine, an inhibitor of nucleoside reverse transcriptase used for AIDS therapy that in rodents induces a peripheral neuropathy resulting in allodynic responses to mechanical stimuli. Symptoms severity peaks between 5 to 10 days after administration (Joseph, E. K. et al. —Pain 107 (2004) 147-158). Ten days after administration of ddC, as an intravenous (i.v.) bolus, test substances were administered every day, once a day or b.i.d for 4 weeks. Dosing was withheld in those days in which allodynic tests were performed, and lasted for 24 h and 48 h.
NT-11624 was dissolved in distilled water and was orally by gavage administered as follows • Group 1: 100 mg/kg b.i.d. for 14 days, followed by 50 mg/kg b.i.d. for 7 days, then 50 mg/kg u.i.d. for 7 days. • Group 2: 50 mg/kg b.i.d. for 28 days.
Pregabalin (3B Pharmachem (Wuhan) International Co.) was dissolved in 1% CMC (carboxymethylcellulose) and orally administered at the dose of 15 mg/kg b.i.d. for 28 days.
Thresholds for mechanical allodynia were measured using an electronic Von Frey apparatus. […] After 4 week drug administration, additional tests were performed beyond the 60 min point, at 4, 8, 24, 48 and 56 h. Results represent the mean (±S.E.M.) of mechanical thresholds expressed in grams.
Drugs: The following substance was used: NT-11624 (batch No. 0000104580 supplied by Brane Discovery Srl, Gerenzano Italy). NT-11624 was dissolved in distilled water and given p.o. every day, except in those days in which allodynic tests were performed and lasted for 24 h, 48 h and 56 h (i.e. days 1, 3, 7, 10, 14, 21, 28).
The following groups of treatment were utilized: • NT-11624 (Group 1): rats received 100 mg/kg b.i.d. of NT-11624 for 14 days, then 50 mg/kg b.i.d. for 7 days, then 50 mg/kg u.i.d. for 7 days. • NT-11624 (Group 2): rats received 50 mg/kg b.i.d. for 28 days • Pregabalin: rats received 15 mg/kg b.i.d. for 28 days
Administration volume was 10 ml/kg body weight. Pregabalin [3B Pharmachem (Wuhan), International Co] was dissolved in CMC 1% (carboxymethylcellulose, Sigma-Aldrich, Italy), and orally given as described before. Control rats received vehicle only.
ddC intravenous injection: ddC was dissolved in saline to a concentration of 25 mg/kg (1 ml) and was administered i.v. into the rat tail vein. Control rats were treated with an equal volume of saline i.v.
The administration of ddC produces dose-dependent mechanical hypersensitivity and allodynia peaking in severity between 5-10 days after the administration. The test is usually performed at day 10.
Von Frey test: Each animal was placed in a chamber with a mesh metal floor covered by a plastic dome that enabled the animal to walk freely, but not to jump. The mechanical stimulus was then delivered in the mid-plantar skin of left hind paw using an electronic Von Frey apparatus (37400 Dynamic Plantar Aesthesiometer; Ugo Basile, Comerio, Varese, Italy). The cut-off was fixed at 50 g, while the increasing force rate (ramp duration) was settled at 20 sec. […] At day 28, additional tests were performed at 4, 8, 24, 48 and 56 h after drug administration. Results represent the mean (±S.E.M.) of mechanical thresholds expressed as grams.

[2] = test system: oxaliplatin induced hyperalgesia in the rat; assay: Oxaliplatin induced hyperalgesia in the rat paw-pressure test; format: in vivo; settings: for Paw pressure, pre-test before all treatments: baseline, drug 100 mg/kg p.o.; for Paw pressure, 1a week - 30 min / Paw pressure, 2a week - 30 min / Paw pressure, 3a week - 30 min / Paw pressure, 3a week - 4 h / Paw pressure, 3a week - 8 h / Paw pressure, 3a week - 24 h: drug 100 mg/kg p.o. once daily
Protocol: Drugs: The following substance was used: NT-13317 (batch No. RR0011-184A1 supplied by Brane Discovery Srl, Gerenzano Italy). NT-13317 was dissolved in DMSO 20%, 10% glucose and administered at the dose of 10, 30 and 100 mg/kg p.o.
Gabapentin (Sigma) was dissolved in 1% CMC (carboxymethylcellulose-Sigma) and orally administered at 100 mg/kg, and dissolved in saline and i.v. administered at 3 mg/kg.
Oxaliplatin model: A peripheral neuropathy was induced in adult rats, by administration of oxaliplatin (Tocris), at 2.4 mg/kg i.p. in saline once a day on days 1, 2, 3, 4, 5, 8, 9, 10, 11, 12, 15, 16, 17, 18, 19 (cumulative dose 36 mg/kg) according to [1].
In the first experiment NT-13317 and gabapentin were given chronically at the dose 100 mg/kg po starting 3 days before oxaliplatin and every day for 5 days/week for 3 weeks.
A dose-response experiment was then performed with NT-13317 (10, 30 and 100 mg/kg po) using the same treatment schedule.
Paw pressure test: Paw mechanical sensitivity was determined using a Randall & Selitto apparatus exerting a force that increases at constant rate (32 g/s). The stimulus at which rats withdrawn the paw was evaluated before and at different times after treatment. Results represent the mean of mechanical thresholds expressed as grams. To avoid any possible damage to the animal paw the maximum applied force was fixed at 240 g.
Statistical analysis: All experimental results are given as the mean±S.E.M. An analysis of variance, ANOVA, followed by Fisher's protected least significant difference procedure for post hoc comparison, were used to verify significance between two means of behavioral results. Data were analyzed with the StatView software for the Macintosh (1992). P values≦0.05 were considered significant.

Question: What does the source list for NCC1(CC(=O)O)CCCCC1 [GABAPENTIN, Gabapentin, reference compound]?
Answer: Reversal of ddC-induced neuropathy (mechanical threshold, von Frey) [1]: not; Reduction of mechanical hyperalgesia over three weeks of treatment (in words) ([2]; 100 mg/kg p.o. once daily, 5 days/week for 3 weeks): much lower effect only at the end of the third week; Pharmacodynamic profile at the end of the third week ([2]; gabapentin 100 mg/kg p.o.): sporadic, intermediate efficacy at 30 min; Paw pressure, pre-test before all treatments ([2]; oxaliplatin i.p. group): 61.1 ± 4.0 g; Paw pressure, 1a week - 30 min ([2]; oxaliplatin i.p.): 47.8 ± 5.6 g; Paw pressure, 2a week - 30 min ([2]; oxaliplatin i.p.): 49.0 ± 5.5 g; Paw pressure, 3a week - 30 min ([2]; oxaliplatin i.p.): 59.5 ± 5.5 g; Paw pressure, 3a week - 4 h ([2]; oxaliplatin i.p.): 55.6 ± 4.2 g; Paw pressure, 3a week - 8 h ([2]; oxaliplatin i.p.): 43.8 ± 6.1 g; Paw pressure, 3a week - 24 h ([2]; oxaliplatin i.p.): 42.2 ± 5.5 g; Paw pressure, pre-test before all treatments ([2]; vehicle i.p. (no oxaliplatin) group): 62.7 ± 3.9 g; Paw pressure, 1a week - 30 min ([2]; vehicle i.p. (no oxaliplatin)): 65.6 ± 4.9 g; Paw pressure, 2a week - 30 min ([2]; vehicle i.p. (no oxaliplatin)): 73.7 ± 5.2 g; Paw pressure, 3a week - 30 min ([2]; vehicle i.p. (no oxaliplatin)): 82.3 ± 5.2 g; Paw pressure, 3a week - 4 h ([2]; vehicle i.p. (no oxaliplatin)): 76.2 ± 4.8 g; Paw pressure, 3a week - 8 h ([2]; vehicle i.p. (no oxaliplatin)): 78.2 ± 5.6 g; Paw pressure, 3a week - 24 h ([2]; vehicle i.p. (no oxaliplatin)): 68.7 ± 5.9 g
